pIC50: −log10 of the molar value.
Target: neuraminidase
Assay type: biochemical
Conditions: in vitro enzyme inhibition; class symbols
Source text: Compositions of the invention are screened for inhibitory activity against neuraminidase by any of the conventional techniques for evaluating enzyme activity. […] Useful in vitro screens have been described in detail and will not be elaborated here.

SMILES	pIC50
N=C(N)Nc1cc(C(=O)O)ccc1NC(=O)C(F)(F)F [Compound 208]	4.12 to 4.70
CCc1cc(C(=O)O)cc(NC(=N)N)c1NC(C)=O [Compound 213]	4.00 to 4.12
